The target in the first assay is FASN enzyme (Homo sapiens, UniProt P49327). The assay can be described thus: Enzymatic Assay for FASN Inhibitors. In kind it is biochemical.
Chain of FASN enzyme (P49327 whole entry): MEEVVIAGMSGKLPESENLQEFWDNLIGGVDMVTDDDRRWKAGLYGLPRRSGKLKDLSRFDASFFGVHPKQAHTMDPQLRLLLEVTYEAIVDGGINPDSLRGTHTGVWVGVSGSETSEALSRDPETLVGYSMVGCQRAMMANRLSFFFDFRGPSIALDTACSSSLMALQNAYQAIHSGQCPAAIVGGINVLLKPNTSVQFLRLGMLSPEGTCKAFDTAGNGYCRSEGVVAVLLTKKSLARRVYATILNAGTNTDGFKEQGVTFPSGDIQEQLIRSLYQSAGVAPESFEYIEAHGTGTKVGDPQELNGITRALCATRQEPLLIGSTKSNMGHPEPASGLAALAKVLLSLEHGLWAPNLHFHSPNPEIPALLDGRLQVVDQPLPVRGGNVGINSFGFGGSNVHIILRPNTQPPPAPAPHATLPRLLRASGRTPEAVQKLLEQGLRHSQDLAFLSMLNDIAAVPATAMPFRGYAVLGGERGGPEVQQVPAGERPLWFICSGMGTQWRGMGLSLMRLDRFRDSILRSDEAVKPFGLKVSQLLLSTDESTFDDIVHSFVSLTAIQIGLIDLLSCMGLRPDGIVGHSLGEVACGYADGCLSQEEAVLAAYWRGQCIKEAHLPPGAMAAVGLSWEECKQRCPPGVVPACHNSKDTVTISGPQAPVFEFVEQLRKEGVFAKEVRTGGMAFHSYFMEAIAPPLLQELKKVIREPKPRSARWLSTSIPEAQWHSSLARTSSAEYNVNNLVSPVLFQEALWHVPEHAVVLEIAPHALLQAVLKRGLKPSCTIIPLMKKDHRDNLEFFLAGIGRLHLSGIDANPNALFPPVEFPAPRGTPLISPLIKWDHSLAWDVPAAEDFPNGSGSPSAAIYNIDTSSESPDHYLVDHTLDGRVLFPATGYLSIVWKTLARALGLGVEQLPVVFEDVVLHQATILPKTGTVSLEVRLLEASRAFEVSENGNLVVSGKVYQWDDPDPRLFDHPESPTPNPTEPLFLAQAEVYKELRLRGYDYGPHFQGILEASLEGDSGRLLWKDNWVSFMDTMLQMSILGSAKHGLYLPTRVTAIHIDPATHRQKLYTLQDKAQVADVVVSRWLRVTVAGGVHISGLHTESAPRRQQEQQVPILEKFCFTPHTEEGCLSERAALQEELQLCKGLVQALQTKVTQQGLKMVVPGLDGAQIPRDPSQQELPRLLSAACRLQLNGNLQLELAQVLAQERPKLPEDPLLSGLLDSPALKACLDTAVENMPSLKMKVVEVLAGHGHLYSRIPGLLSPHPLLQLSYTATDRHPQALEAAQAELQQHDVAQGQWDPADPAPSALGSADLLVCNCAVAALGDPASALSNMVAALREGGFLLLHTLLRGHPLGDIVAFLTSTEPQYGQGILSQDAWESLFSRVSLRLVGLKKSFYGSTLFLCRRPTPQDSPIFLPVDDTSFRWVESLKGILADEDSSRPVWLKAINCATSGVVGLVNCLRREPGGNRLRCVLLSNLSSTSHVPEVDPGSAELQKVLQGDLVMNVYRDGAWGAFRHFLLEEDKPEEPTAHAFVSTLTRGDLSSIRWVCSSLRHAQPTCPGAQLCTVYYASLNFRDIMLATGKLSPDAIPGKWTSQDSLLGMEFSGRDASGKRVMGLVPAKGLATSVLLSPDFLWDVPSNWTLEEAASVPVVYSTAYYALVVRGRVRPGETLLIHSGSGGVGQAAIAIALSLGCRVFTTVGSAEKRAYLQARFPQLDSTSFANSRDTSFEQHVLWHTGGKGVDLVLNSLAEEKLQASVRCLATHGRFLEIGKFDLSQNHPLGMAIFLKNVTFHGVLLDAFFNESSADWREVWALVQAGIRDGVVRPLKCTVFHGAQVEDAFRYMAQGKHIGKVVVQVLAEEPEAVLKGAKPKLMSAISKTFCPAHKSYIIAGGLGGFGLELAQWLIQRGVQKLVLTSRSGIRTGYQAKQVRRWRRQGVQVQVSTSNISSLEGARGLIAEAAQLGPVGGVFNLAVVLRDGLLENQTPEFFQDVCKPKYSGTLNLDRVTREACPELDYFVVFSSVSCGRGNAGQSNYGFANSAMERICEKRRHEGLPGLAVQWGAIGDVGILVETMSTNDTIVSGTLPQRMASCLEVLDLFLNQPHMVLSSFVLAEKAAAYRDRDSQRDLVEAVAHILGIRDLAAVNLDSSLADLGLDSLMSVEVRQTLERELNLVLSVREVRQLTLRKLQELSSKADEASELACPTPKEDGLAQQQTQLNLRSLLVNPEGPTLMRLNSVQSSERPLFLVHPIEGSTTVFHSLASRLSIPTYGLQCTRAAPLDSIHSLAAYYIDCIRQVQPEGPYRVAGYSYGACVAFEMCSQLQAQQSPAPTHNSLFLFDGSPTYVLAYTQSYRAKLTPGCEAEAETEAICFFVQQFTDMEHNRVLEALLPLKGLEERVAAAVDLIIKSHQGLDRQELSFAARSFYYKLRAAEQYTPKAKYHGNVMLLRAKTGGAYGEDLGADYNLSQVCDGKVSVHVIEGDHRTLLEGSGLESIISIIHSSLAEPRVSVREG
Conditions: not given
The procedure, abridged:
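40 nM FASN preincubated with compound 60 min at 25° C in HEPES pH 7.3 buffer with 0.04% Triton X-100. Then 20 μM acetyl-CoA, 60 μM malonyl-CoA and 100 μM NADPH added for 90 min, quenched with CPM thiol probe; fluorescence 360/530 nm, IC50 by four-parameter fit.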
`Cc1nn(-c2ccc(C(=O)N3CCN(C(=O)C4(O)CC4)CC3)cc2)c2ccccc12` [(4-(1-hydroxycyclopropane-1-carbonyl)piperazin-1-yl)(4-(3-methyl-1H-indazol-1-yl)phenyl)methanone]: the IC50 (as a rule, the concentration that gives 50% inhibition) was below 500 nM.
On the same count and under the same terms, as for `Cn1cc2ccc(-c3cc(F)c(C(=O)N4CCN(C(=O)C5(O)CC5)CC4)c(F)c3)cc2n1` [1-{4-[2,6-difluoro-4-(2-methyl-2H-indazol-6-yl)benzoyl]piperazine-1-carbonyl}cyclopropan-1-ol], the figure is below 500 nM; as for `C[C@@H]1CN(C(=O)C2(O)CC2)CCN1C(=O)c1ccc(-c2nc3ccc(F)cc3o2)cc1` [1-[(3R)-4-[4-(6-fluoro-1,3-benzoxazol-2-yl)benzoyl]-3-methylpiperazine-1-carbonyl]cyclopropan-1-ol], below 500 nM.
Still for that read-out and setting: under `Cn1ncc2ccc(-c3ccc(C(=O)N4CCN(C(=O)C5(O)CC5)CC4)cc3Cl)cc21` [1-{4-[3-chloro-4-(1-methyl-1H-indazol-6-yl)benzoyl]piperazine-1-carbonyl}cyclopropan-1-ol] stands below 500 nM.
Still for that read-out and setting: as for `C[C@H]1CN(C(=O)C2(O)CC2)CCN1C(=O)c1ccc(-c2ccc(Cl)cc2F)cc1` [1-[(3S)-4-[4-(4-chloro-2-fluorophenyl)benzoyl]-3-methylpiperazine-1-carbonyl]cyclopropan-1-ol], the figure is below 500 nM; as for `O=C(c1ccc(-c2nc3ccccn3c2Cl)cc1F)N1CCN(C(=O)C2(O)CC2)CC1` [1-[4-(4-{3-chloroimidazo[1,2-a]pyridin-2-yl}-2-fluorobenzoyl)piperazine-1-carbonyl]cyclopropan-1-ol], below 500 nM; as for `Nc1cc(-c2cccc(-c3ccc(C(=O)N4CCN(C(=O)C5(N)CC5)CC4)c(F)c3)c2)no1` [3-(3-{4-[4-(1-aminocyclopropanecarbonyl)piperazine-1-carbonyl]-3-fluorophenyl}phenyl)-1,2-oxazol-5-amine], below 500 nM.
`O=C(c1ccc(-c2nc3ccccn3c2Cl)cc1Cl)N1CCN(C(=O)C2(O)CC2)CC1` [1-[4-(2-chloro-4-{3-chloroimidazo[1,2-a]pyridin-2-yl}benzoyl)piperazine-1-carbonyl]cyclopropan-1-ol] displayed an IC50 below 500 nM.
Same read-out and setting: under `CNC(=O)c1cccc(-c2ccc(C(=O)N3CCN(C(=O)C4(O)CC4)CC3)cc2)n1` [6-{4-[4-(1-hydroxycyclopropanecarbonyl)piperazine-1-carbonyl]phenyl}-N-methylpyridine-2-carboxamide] stands below 500 nM; under `Cc1nc2cc(Cl)cc(-c3ccc(C(=O)N4CCN(C(=O)C5(O)CC5)CC4)cc3)c2[nH]1`, below 500 nM.

Still in this assay, the particulars now being: FASN enzymatic assay; Table 2-2.
In the case of `O=C(c1ccc(-c2ccc(Cl)cc2C(F)(F)F)cc1)N1CCN(C(=O)C2(O)CC2)CC1` [1-{[4-({4-[4-chloro-2-(trifluoromethyl)phenyl]phenyl}carbonyl)piperazin-1-yl]carbonyl}cyclopropan-1-ol], the IC50 fell in the range of 500 to 5000 nM.
Turning to `O=C(c1ccc(-c2cc(F)cc(C(F)(F)F)c2)cc1)N1CCN(C(=O)C2(O)CC2)CC1` [1-{[4-({4-[3-fluoro-5-(trifluoromethyl)phenyl]phenyl}carbonyl)piperazin-1-yl]carbonyl}cyclopropan-1-ol], the IC50 fell in the range of 500 to 5000 nM.

The assay is the same for the next values; noted with them: FASN enzymatic assay; Table 2-3.
Regarding `O=C(c1ccc(-c2cncc(F)c2)cc1)N1CCN(C(=O)C2(O)CC2)CC1` [1-[(4-{[4-(5-fluoropyridin-3-yl)phenyl]carbonyl}piperazin-1-yl)carbonyl]cyclopropan-1-ol], the IC50 was at least 5000 nM.
The same measure, in the same setting: under `COc1c(Cl)ccc(-c2ccc(C(=O)N3CCN(C(=O)C4(O)CC4)CC3)cc2)c1Cl` [1-[(4-{[4-(2,4-dichloro-3-methoxyphenyl)phenyl]carbonyl}piperazin-1-yl)carbonyl]cyclopropan-1-ol] stands at least 5000 nM; under `C[C@@H]1CN(C(=O)C2(O)CC2)[C@@H](C)CN1C(=O)c1ccc(-c2ccc3cnccc3c2)cc1`, at least 5000 nM; under `O=C(c1ccc(-c2ccc(C(F)(F)F)nc2)cc1)N1CCN(C(=O)C2(O)CC2)CC1` [1-{[4-({4-[6-(trifluoromethyl)pyridin-3-yl]phenyl}carbonyl)piperazin-1-yl]carbonyl}cyclopropan-1-ol], at least 5000 nM.

The record behind these values is US10457655B2, “Compounds and compositions for inhibition of FASN” (FORMA Therapeutics, Inc., priority 2013, dated 2019).
